Where two headings read alike, the source gives them in different places.

Experimental findings from patent US4271155A, “Water soluble hydrazones of 3-formylrifamycin SV, antibacterial compositions thereof and method of use thereof” (Gruppo Lepetit S.p.A., priority 1979, dated 1981) are described below.

A short description of data set [1]: solubility in water / aqueous vehicles. The format is physicochemical. An excerpt: The new rifamycins of formula I are in fact completely soluble in water or in mixture of water with other pharmaceutically acceptable solvents mixable with water. Useful solvents which can be admixed with water are for instance the polyhydric aliphatic alcohols such as ethylene glycol, propylene glycol, glycerine and mixtures thereof. These solutions can be added with buffers to maintain the pH range at a physiological value. For instance, ten grams of the compound of formula I wherein R is methyl, X is [drawing 3] are completely soluble in 100 ml of water buffered at pH 7.38 (phosphate buffer). The corresponding compound wherein A and B are both the sodium cation is even more soluble; in fact 100 ml of water can dissolve about fifty grams of said compound.

The next data set concerns Escherichia coli. Put plainly: ED50 in mice infected with Escherichia coli. Format: in vivo. As to conditions: sc, read-out: ED50, E. coli. An excerpt:
(§1) The values of the ED50 of the compounds of examples 2, 3 and 4 against the two microbial strains and the toxicity (LD50) of the compounds are reported in the following Table

The next data set is described as follows: toxicity (LD50) in mice. As to conditions: mouse, in vivo.
Source text: as §1

Data set [2] has as its system Staphylococcus aureus Tour. Put plainly: ED50 in mice infected with Staphylococcus aureus Tour. Format: in vivo. To be noted: sc.
Source text: as §1

Setting [3] is: ip, read-out: LD50 in mice, i.p.
Where [4] appears, read: iv, read-out: LD50 in mice, i.v.

Regarding `COC1C=COC2(C)Oc3c(C)c(O)c4c(O)c(c(C=NN(C)CC(C)OP(=O)(O)O)c(O)c4c3C2=O)NC(=O)C(C)=CC=CC(C)C(O)C(C)C(O)C(C)C(OC(C)=O)C1C` (centres unmarked) [listing 1 of 2 here], the “completely soluble in 100 ml of water” value in data set [1] (per 100 ml of water buffered at pH 7.38 (phosphate buffer)) is “ten”.
Broadly, the ED50 is the midpoint of the dose-response relation. By LD50 is commonly meant the dose at which mortality reaches 50%. As to `CCC(CN(C)N=Cc1c2c(O)c3c(O)c(C)c4c(c3c1O)C(=O)C(C)(OC=CC(OC)C(C)C(OC(C)=O)C(C)C(O)C(C)C(O)C(C)C=CC=C(C)C(=O)N2)O4)OP(=O)(O)O` (centres unmarked) [Example 3, 3-[[[2-(Phosphonoxy)butyl]methylhydrazono]methyl]rifamycin SV], the figures for the ED50 (with Escherichia coli; in data set [2]) were 130 mg/kg and 0.812 mg/kg, respectively. In addition, the LD50 was above 500 mg/kg in the data set “toxicity (LD50) in mice” (setting [3]) and 525 mg/kg in the data set “toxicity (LD50) in mice” (setting [4]).
Consider `COC1C=COC2(C)Oc3c(C)c(O)c4c(O)c(c(C=NN(C)CC(C)OP(=O)(O)O)c(O)c4c3C2=O)NC(=O)C(C)=CC=CC(C)C(O)C(C)C(O)C(C)C(OC(C)=O)C1C` (centres unmarked) [listing 2 of 2 here], for which, in data set [1] (per 100 ml of water, A and B both sodium cation), the “amount that 100 ml of water can dissolve” value is “about fifty”.
In the case of `COC1C=COC2(C)Oc3c(C)c(O)c4c(O)c(c(C=NN(C)CCOP(=O)(O)O)c(O)c4c3C2=O)NC(=O)C(C)=CC=CC(C)C(O)C(C)C(O)C(C)C(OC(C)=O)C1C` (centres unmarked) [Example 4, 3-[[[2-(Phosphonoxy)ethyl]methylhydrazono]methyl]rifamycin SV], the ED50 turned out to be 106 mg/kg with Escherichia coli and 1.51 mg/kg in data set [2]. Further, the median lethal dose (LD50) in the data set “toxicity (LD50) in mice” (setting [3]) came to 592 mg/kg; in the data set “toxicity (LD50) in mice” (setting [4]) it was 507 mg/kg.
In the case of `COC1C=COC2(C)Oc3c(C)c(O)c4c(O)c(c(C=NN(C)CC(C)OP(=O)(O)O)c(O)c4c3C2=O)NC(=O)C(C)=CC=CC(C)C(O)C(C)C(O)C(C)C(OC(C)=O)C1C` (centres unmarked) [Example 2, 3-[[[2-(Phosphonoxy)propyl]methylhydrazino]methyl]rifamycin SV], the 50% effective dose (ED50) came out at 98.5 mg/kg with Escherichia coli and 0.812 mg/kg in data set [2]. The values for the LD50 in “toxicity (LD50) in mice” (setting [3]) and in “toxicity (LD50) in mice” (setting [4]) were 770 mg/kg and 665 mg/kg, respectively.
